Results published in patent US10676747B2, “Methods for improving cognitive function via modulation of quinone reductase 2” (Carmel-Haifa University Economic Corp. Ltd., priority 2014, dated 2020).

What was measured:
QR2 = biological target: T1, QR2 (Homo sapiens, UniProt P16083); conditions: literature statement; cited from earlier work
T1 sequence (P16083 1-231): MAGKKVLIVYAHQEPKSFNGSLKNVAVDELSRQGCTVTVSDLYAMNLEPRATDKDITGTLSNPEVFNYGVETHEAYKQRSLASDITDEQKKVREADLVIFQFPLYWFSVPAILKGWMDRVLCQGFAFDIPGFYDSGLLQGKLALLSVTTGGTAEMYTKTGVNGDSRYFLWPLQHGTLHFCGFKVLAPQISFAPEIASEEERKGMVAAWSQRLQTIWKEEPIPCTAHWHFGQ

rats [1] = assay: LI-CTA protocol: positive taste memory after QR2 inhibitor injection; type: in vivo, rat; conditions: n=8; for Aversion index (AI): 0.1% saccharin, inhibitor 10 mg/kg i.p. one hour before pre-exposure, choice test three days after LiCl, mean+/-SEM; for AI compared with vehicle-injected groups (CTA and LI-CTA): Fisher's LSD post-hoc test
Procedure: (§1) Subjects—Adult male Wistar Hola rats (Harlan Laboratories, Jerusalem) within a weight range of 200-300 gr (corresponding to an age of 8 to 12 weeks) were used for this study. They were maintained on a 12 hour light/dark cycle and all experiments were carried out during the light cycle. Additionally, the rats had ad libtum access to food and water unless otherwise indicated. The procedures were performed in strict accordance with the University of Haifa regulations and the US National Institutes of Health guidelines (NIH publication number 8023).
(§2) The vehicle—In all of the experiments in which we utilized pharmacological agents they were prepared in physiological saline. Physiological saline was prepared in house by dissolving NaCl in DDW (0.9% w/v). The physiological saline was injected to the controls in all experiments in which the test group(s) was injected with a pharmacological agent. The same volume of the vehicle was injected as the pharmacological agent.
(§3) QR2 inhibitors—We used two inhibitors of QR2 activity, S29434 and S26695, obtained from Pharmacolgie Moleculaire et Cellulaire, Institut de Recherches Servier. The inhibitors were dissolved in dimethyl sulfoxide (DMSO) and then added to physiological saline. The final concentration of dimethyl sulfoxide in the physiological saline was 5%. These inhibitors were injected prior to the learning process intraperitoneally (i.p.) 10 mg/kg.
(§4) Aversion index—the aversion index is calculated by the following equation [(total water ingested/(novel taste liquid ingested+water ingested))*100].
(§5) Conditioned Taste Aversion (CTA)—Two groups of rats were deprived from water for a period of 24 hours. This was followed by 3 days of restriction were the rats received two pipettes each filled with 10 ml of water for 20 minutes each day. On the fourth day both groups received two pipettes each filled with 10 ml of an unfamiliar tasting liquid, either saccharine (0.1% w/v) or NaCl (0.3% w/v), for 20 minutes. Forty minutes following the exposure to the novel liquid the rats in the experimental group received an injection of LiCl (prepared in double distilled water (DDW)) (2% bodyweight, intraperitoneally (i.p.)) and those in the control received an injection of physiological saline (2% bodyweight, i.p.).
LI-CTA learning paradigm. This paradigm presents the animal with a novel taste. The animal is then given 48 hours during which it will form a memory of the taste and will consider the taste to be a safe taste. The animal will then be presented with the taste again and then injected with LiCl in order to induce malaise. Normally when an animal is presented with a taste and then has malaise induced (CTA) the animal will form a very high aversion to that taste. […]

rats [2] = assay: CTA protocol with NaCl: negative taste memory after QR2 inhibitor injection; type: in vivo, rat; conditions: n=8; for AI compared with vehicle-injected group: CTA with NaCl, Fisher's LSD test; for Aversion index (AI): CTA, 0.5% NaCl, LiCl 0.03M, inhibitor 10 mg/kg i.p. one hour before, mean+/-SEM
Procedure: as §1, §2, §3, §4
as §5, with “On the fourth day both groups received two pipettes each filled with 10 ml of an unfamiliar tasting liquid, either saccharine (0.1% w/v) or NaCl (0.3% w/v), for 20 minutes.” left out
M&M—We used three groups in this experiment, all of which were subjected to three days of water restriction. Following the three day water restriction period one group was injected with the vehicle; one group with S29434; one group with S26695. Then, one hour after the injections, all three groups were subjected to the CTA protocol: we gave them access to two pipettes containing 10 ml of 0.5% w/v NaCl each (a novel taste) for 20 minutes (in this experiment NaCl as the novel taste was used since CTA conducted with NaCl leads to a lower AI which prevents a ceiling effect from occurring and allows us to evaluate if the inhibitors generate an increase in learning and therefore a higher AI). […]

## COc1ccc2[nH]cc(CCNC(C)=O)c2c1 [Melatonin]
QR2
  QR2 inhibition: inhibits QR2 activity

## CNS(=O)(=O)c1ccc2cccc(CCNC(C)=O)c2c1 [S26695, N-[2-(7-methylaminosulfonyl-1-naphthyl)ethyl]acetamide]
Rats [1]
  Aversion index (AI): 68.44+/−4.44
  AI compared with vehicle-injected groups (CTA and LI-CTA): significantly lower AI
Rats [2]
  AI compared with vehicle-injected group: significantly higher AI
  Aversion index (AI): 86.84+/−2.17

## COc1ccc2c(n1)c(CCNC(=O)c1ccco1)c1n2Cc2cccnc2-1 [S29434, N-[2-(2-methoxy-6h-dipyrido[2,3-α:3,2-e]pyrrolizin-11-yl)ethyl]-2-furamide]
Rats [1]
  Aversion index (AI): 56.16+/−6.15
  AI compared with vehicle-injected groups (CTA and LI-CTA): significantly lower AI
Rats [2]
  AI compared with vehicle-injected group: significantly higher AI
  Aversion index (AI): 92%

## Oc1ccc(/C=C/c2cc(O)cc(O)c2)cc1 [resveratrol]
QR2
  QR2 inhibition: efficiently inhibits QR2
